# In ChEMBL document CHEMBL4619812, “Discovery of Potent and Orally Available Bicyclo[1.1.1]pentane-Derived Indoleamine-2,3-dioxygenase 1 (IDO1) Inhibitors” (ACS Med Chem Lett, 2020):
# Key:
# [1] = Unbound intrinsic clearance in human hepatocytes; format: ADME, cell-based, Hepatocyte
# [2] = Unbound intrinsic clearance in rat hepatocytes; format: ADME, cell-based, Hepatocyte
# [3] = biological target: Tryptophan 2,3-dioxygenase (Homo sapiens, UniProt P48775); assay: Inhibition of TDO in human SW48 cells using L-tryptophan as substrate incubated for 48 hrs by fluorescent microplate reader assay; format: cell-based
# [4] = Clearance in rat; format: ADME; conditions: in vivo
# [5] = Unbound clearance in rat; format: ADME; conditions: in vivo
# [6] = Elimination half life in rat; format: ADME; conditions: in vivo, read-out: beta t1/2 (converted)
# [7] = Oral bioavailability in rat; format: ADME, organism-based; conditions: in vivo
# [8] = Apparent permeability in MDCK2 cells; format: ADME, cell-based, Canis lupus familiaris, MDCK-II; conditions: dog, MDCK
# [9] = Unbound intrinsic clearance in dog hepatocytes; format: ADME, cell-based, Canis lupus familiaris, Hepatocyte
# [10] = Clearance in dog; format: ADME, Canis lupus familiaris; conditions: in vivo
# [11] = Unbound clearance in dog; format: ADME, Canis lupus familiaris; conditions: in vivo
# [12] = Elimination half life in dog; format: ADME, Canis lupus familiaris; conditions: in vivo, read-out: beta t1/2 (converted)
# [13] = Oral bioavailability in dog; format: ADME, organism-based, Canis lupus familiaris; conditions: in vivo
# [14] = biological target: MDR1 (ABCB1, P-glycoprotein) (Homo sapiens, UniProt P08183); assay: Substrate activity at human MDR1 expressed in pig LLC-PK1 cells assessed as efflux ratio of permeability across basolateral to apical over apical to basolateral membrane at 1 mM after 3 hrs by LC/MS/MS analysis; design: dose or concentration left out as unconfirmed
# CYP450 = CYP450 (Homo sapiens, UniProt P04798+P05177+P05181+P08684+P10632+P10635+P11509+P11712+P13584+P20813+P20815+P20853+P24462+P24903+P33260+P33261+P51589+P78329+P98187+Q02928+Q08477+Q16678+Q16696+Q5TCH4+Q6VVX0+Q7Z449+Q8TAV3+Q96SQ9+Q9HB55); assay: Inhibition of CYP450 (unknown origin); format: ADME, protein assay
# [15] = biological target: T1, Nuclear receptor subfamily 1 group I member 2 (Homo sapiens, UniProt O75469); assay: Activation of PXR (unknown origin)
# T1 sequence (O75469 whole entry): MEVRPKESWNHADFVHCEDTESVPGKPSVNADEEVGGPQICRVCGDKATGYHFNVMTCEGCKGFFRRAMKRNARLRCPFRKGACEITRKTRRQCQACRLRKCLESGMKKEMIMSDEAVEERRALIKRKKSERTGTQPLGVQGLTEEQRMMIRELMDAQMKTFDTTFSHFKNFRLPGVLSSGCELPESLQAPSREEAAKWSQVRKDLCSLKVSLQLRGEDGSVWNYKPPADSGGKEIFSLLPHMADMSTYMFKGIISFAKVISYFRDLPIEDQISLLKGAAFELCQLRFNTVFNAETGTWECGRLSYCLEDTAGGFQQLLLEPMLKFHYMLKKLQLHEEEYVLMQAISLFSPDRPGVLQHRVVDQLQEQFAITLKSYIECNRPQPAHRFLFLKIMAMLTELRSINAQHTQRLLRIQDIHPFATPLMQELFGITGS
# CYP3A4 = CYP3A4 (Homo sapiens, UniProt P08684); assay: Inhibition of CYP3A4 (unknown origin) assessed as TDI shift ratio
# [16] = biological target: Indoleamine 2,3-dioxygenase 1 (Homo sapiens) (UniProt P14902); conditions: Blood
# Sequence of Indoleamine 2,3-dioxygenase 1 (Homo sapiens) (P14902 whole entry, looked up): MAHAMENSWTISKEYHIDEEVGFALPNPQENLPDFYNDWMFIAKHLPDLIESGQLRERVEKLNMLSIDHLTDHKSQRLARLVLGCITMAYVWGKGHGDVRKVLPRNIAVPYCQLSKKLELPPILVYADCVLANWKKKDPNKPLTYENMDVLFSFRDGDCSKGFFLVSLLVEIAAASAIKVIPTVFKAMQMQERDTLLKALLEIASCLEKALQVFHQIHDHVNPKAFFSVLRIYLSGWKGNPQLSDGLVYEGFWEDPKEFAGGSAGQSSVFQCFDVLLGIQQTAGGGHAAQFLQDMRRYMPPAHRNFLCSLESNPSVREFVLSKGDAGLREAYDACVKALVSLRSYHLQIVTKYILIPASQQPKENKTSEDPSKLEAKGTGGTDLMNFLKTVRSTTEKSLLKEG
# Description: Inhibition of IDO1 in human whole blood stimulated with IFNgamma/LPS using L-tryptophan/kynurenine as substrate incubated for 15 mins prior to IFNgamma/LPS stimulation and further incubated for 18 hrs followed by isotope labeled L-tryptophan/kynurenine addition on day 2 by LC/MS-MS analysis
# Sequence of Tryptophan 2,3-dioxygenase (P48775 whole entry): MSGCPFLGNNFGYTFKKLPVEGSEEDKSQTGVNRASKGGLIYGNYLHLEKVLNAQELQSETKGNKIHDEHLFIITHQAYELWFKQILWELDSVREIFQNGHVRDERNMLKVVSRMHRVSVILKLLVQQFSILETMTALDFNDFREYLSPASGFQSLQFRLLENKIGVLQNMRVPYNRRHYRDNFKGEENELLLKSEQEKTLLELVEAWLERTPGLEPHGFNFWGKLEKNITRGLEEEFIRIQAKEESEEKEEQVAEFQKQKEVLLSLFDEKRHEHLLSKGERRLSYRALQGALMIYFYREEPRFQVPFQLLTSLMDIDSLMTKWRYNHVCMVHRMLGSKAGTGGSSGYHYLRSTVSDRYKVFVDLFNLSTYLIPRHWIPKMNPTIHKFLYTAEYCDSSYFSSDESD
# Sequence of CYP3A4 (P08684 whole entry): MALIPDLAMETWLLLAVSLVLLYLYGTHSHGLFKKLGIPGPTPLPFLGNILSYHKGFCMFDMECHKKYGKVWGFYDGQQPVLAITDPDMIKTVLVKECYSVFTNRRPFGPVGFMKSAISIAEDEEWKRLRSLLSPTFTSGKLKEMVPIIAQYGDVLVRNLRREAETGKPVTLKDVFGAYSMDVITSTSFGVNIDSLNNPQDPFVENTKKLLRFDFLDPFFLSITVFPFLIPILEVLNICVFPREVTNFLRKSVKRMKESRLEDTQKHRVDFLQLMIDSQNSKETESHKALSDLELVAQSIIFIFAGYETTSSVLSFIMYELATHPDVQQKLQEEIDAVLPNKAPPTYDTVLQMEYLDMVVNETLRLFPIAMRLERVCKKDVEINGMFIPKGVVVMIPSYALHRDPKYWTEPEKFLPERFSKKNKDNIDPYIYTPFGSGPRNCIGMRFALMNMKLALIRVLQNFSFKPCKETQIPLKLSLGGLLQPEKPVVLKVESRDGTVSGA
# Sequence of MDR1 (ABCB1, P-glycoprotein) (P08183 whole entry): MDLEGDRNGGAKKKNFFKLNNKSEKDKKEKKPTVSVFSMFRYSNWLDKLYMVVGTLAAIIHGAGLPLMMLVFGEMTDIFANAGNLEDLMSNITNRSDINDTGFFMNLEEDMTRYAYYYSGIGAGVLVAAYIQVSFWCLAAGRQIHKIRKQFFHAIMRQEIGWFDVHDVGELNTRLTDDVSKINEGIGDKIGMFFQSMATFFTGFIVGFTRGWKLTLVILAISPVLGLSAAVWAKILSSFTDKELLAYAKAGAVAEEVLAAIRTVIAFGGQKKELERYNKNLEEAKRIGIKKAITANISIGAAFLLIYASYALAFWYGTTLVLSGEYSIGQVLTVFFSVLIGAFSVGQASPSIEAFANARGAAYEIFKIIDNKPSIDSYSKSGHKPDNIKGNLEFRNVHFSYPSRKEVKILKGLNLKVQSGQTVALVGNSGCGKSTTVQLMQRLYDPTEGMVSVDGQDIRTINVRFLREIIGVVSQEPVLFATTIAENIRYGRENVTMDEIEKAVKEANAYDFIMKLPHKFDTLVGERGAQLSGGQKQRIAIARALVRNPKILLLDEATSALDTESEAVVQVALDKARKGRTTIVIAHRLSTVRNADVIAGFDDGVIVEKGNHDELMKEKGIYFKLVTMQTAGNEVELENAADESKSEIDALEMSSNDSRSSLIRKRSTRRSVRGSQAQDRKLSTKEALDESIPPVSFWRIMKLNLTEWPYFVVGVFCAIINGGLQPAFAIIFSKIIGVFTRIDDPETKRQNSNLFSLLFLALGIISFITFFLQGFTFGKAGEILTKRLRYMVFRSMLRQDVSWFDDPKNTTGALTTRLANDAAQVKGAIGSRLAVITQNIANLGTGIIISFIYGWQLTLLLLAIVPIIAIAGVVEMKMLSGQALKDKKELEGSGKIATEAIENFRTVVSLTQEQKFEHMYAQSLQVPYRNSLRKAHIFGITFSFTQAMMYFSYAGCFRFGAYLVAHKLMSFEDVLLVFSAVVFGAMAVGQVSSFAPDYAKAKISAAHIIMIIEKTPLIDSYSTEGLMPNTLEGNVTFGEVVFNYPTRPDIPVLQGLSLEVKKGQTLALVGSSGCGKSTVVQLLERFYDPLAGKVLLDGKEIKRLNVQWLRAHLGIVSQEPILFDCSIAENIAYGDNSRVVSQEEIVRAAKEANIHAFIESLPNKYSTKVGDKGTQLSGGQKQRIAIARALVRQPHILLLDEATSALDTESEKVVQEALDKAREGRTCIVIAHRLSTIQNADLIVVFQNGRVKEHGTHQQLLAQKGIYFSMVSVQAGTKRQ
SMILES,CL free [1] [mL/min/kg],CL free [2] [mL/min/kg],further results
C[C@H](C(=O)Nc1ccc(F)cc1)C12CC(NC(=O)OC3CCCC3)(C1)C2,2357,4457,
C[C@H](C(=O)Nc1ccc(F)cc1)C12CC(Nc3ncnc4ccccc34)(C1)C2,1544,1494,
C[C@H](C(=O)Nc1ccc(Cl)cc1)C12CC(NC(=O)c3cccc(Cl)c3)(C1)C2,47,150,
CC(C)(C(=O)Nc1ccc(F)cc1)C12CC(NC(=O)c3cccc(Cl)c3)(C1)C2,51,197,
C[C@H](C(=O)Nc1ccc(F)cc1)C12CC(Nc3ncnc4ccc(F)cc34)(C1)C2,723,549,
C[C@H](C(=O)Nc1ccc(F)cc1)C12CC(NC(=O)c3cccc(Cl)n3)(C1)C2,82,644,
CC(C)OC(=O)NC12CC([C@H](C)C(=O)Nc3ccc(F)cc3)(C1)C2,369,2925,

# More lines, main results first:
CL free [1] [mL/min/kg],CL free [2] [mL/min/kg],SMILES,further results
56,295,C[C@H](C(=O)Nc1ccc(F)cc1)C12CC(NC(=O)c3ccc(F)c(Cl)c3)(C1)C2,
48,247 to 248,C[C@H](C(=O)Nc1ccc(F)cc1)C12CC(NC(=O)c3cccc(Cl)c3)(C1)C2,IC50 [3]: > 10 µM; clearance [4]: 5 mL/min/kg; CL free [5]: 194 mL/min/kg; half-life [6]: 3.7 h; bioavailability [7]: 110%; Papp [8]: 32 ×10⁻⁶ cm/s
,1935,O=C(Nc1ccc(C2(C(=O)Nc3ccc(F)cc3)CCC2)cc1)c1cccc(Cl)c1,CL free [5]: 4371 mL/min/kg
56,441,C[C@H](C(=O)Nc1ccc(F)cc1)C12CC(NC(=O)c3cc(F)cc(Cl)c3)(C1)C2,
34,133,C[C@H](C(=O)Nc1ccc(Cl)nc1)C12CC(NC(=O)c3cccc(Cl)c3)(C1)C2,
591,765,C[C@H](C(=O)Nc1ccc(F)cc1)C12CC(NC(=O)c3cccc(Cl)c3F)(C1)C2,
52,195,C[C@H](C(=O)Nc1ccc(F)cc1)C12CC(NC(=O)c3ccc(F)c(F)c3)(C1)C2,IC50 [3]: > 10 µM; CL free [9]: 121 mL/min/kg; clearance [4]: 2 mL/min/kg; CL free [5]: 37 mL/min/kg; half-life [6]: 11 h; bioavailability [7]: 83%; clearance [10]: 1.1 mL/min/kg; CL free [11]: 22 mL/min/kg; half-life [12]: 36 h; bioavailability [13]: 79%; efflux ratio at 3 h [14]: 1.3; Papp [8]: 29 ×10⁻⁶ cm/s; IC50 (CYP450): > 50 µM; EC50 [15]: > 30 µM; IC50 shift (CYP3A4): 1; IC90 [16]: 0.912 µM
